Measurements taken from patent US7838674B2, “Tetracyclic lactame derivatives” (Novartis AG, priority 2007, dated 2010).
Counter-ions that a name gives are not always drawn.

Molecular target: T1, MAPKAPK2 enzyme (HIS-MK2, Invitrogen PV4019) (Homo sapiens, UniProt P49137)
T1 construct: His; purchased Invitrogen PV4019
Test: Alternative MAPKAPK2 assay (Caliper microfluidic mobility shift, HSP27-peptide)
Assay type: biochemical
Details: HIS-MK2 0.013 nM, ATP 10 μM, 60 min at 30° C.

T1 sequence (P49137 whole entry): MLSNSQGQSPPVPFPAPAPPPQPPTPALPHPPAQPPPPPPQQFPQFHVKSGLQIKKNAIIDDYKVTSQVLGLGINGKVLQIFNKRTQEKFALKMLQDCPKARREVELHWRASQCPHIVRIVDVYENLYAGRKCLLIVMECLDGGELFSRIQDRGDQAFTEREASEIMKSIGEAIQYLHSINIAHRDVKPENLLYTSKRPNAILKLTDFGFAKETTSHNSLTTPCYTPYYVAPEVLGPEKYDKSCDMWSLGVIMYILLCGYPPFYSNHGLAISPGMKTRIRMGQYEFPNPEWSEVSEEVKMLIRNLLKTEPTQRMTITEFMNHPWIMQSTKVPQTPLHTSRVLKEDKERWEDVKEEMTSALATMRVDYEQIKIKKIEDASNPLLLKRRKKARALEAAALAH

Going from `COc1ncc(-c2cc3c(cn2)CCc2c-3[nH]c3c2C(=O)NC2(CC2)C32CC2)cc1F` [Example 194, 2-(1′-Amino-bicyclopropyl-1-yl)-8-(5-fluoro-6-methoxy-pyridin-3-yl)-4,5-dihydro-1H-pyrrolo[2,3-f]isoquinoline-3-carboxylic acid lactam] to `COc1ccc(-c2cc3c(cn2)CCc2c-3[nH]c3c2C(=O)NC2(CC2)C32CC2)cn1` [Example 199, 2-(1′-Amino-bicyclopropyl-1-yl)-8-[6-methoxy-pyridin-3-yl]-4,5-dihydro-1H-pyrrolo[2,3-f]isoquinoline-3-carboxylic acid lactam], the IC50 falls from 42 nM to 23 nM (1.8-fold).

`CN(C)c1ccc(-c2cc3c(cn2)CCc2c-3[nH]c3c2C(=O)NC2(CC2)C32CC2)cn1` [Example 197, 2-(1′-Amino-bicyclopropyl-1-yl)-8-(6-dimethylamino-pyridin-3-yl)-4,5-dihydro-1H-pyrrolo[2,3-f]isoquinoline-3-carboxylic acid lactam] and `CC(C)Oc1ccc(-c2cc3c(cn2)CCc2c-3[nH]c3c2C(=O)NC2(CC2)C32CC2)cn1` [Example 200, 2-(1′-Amino-bicyclopropyl-1-yl)-8-[6-isopropoxy-pyridin-3-yl]-4,5-dihydro-1H-pyrrolo[2,3-f]isoquinoline-3-carboxylic acid lactam] are within 1.5-fold of each other in IC50: 38 nM for the first, 37 nM for the second.

Going from `O=C1NC2(CC2)C2(CC2)c2[nH]c3c(c21)CCc1cnc(-c2ccc(OC4CCOCC4)nc2)cc1-3` [Example 198, 2-(1′-Amino-bicyclopropyl-1-yl)-8-[6-(tetrahydro-pyran-4-yloxy)-pyridin-3-yl]-4,5-dihydro-1H-pyrrolo[2,3-f]isoquinoline-3-carboxylic acid lactam] to `O=C1NC2(CC2)C2(CNC2)c2[nH]c3c(c21)CCc1cnc(-c2ccc(C(F)(F)F)nc2)cc1-3` [Example 211, 2-[3-(1-Amino-cyclopropyl)-azetidin-3-yl]-8-(6-trifluoromethyl-pyridin-3-yl)-4,5-dihydro-1H-pyrrolo[2,3-f]isoquinoline-3-carboxylic acid lactam hydrochloride], the IC50 falls from 20 nM to < 3 nM. The second is the more potent here.

Going from `Cn1c2c(c3c1C1(CNC1)CNC3=O)CCc1cnc(-c3cccc(F)c3)nc1-2` [Example 203, 2-(3-Aminomethyl-azetidin-3-yl)-8-(3-fluoro-phenyl)-1-methyl-4,5-dihydro-1H-1,7,9-triaza-cyclopenta[a]naphthalene-3-carboxylic acid lactam hydrochloride] to `CN1CC2(CNC(=O)c3c4c(n(C)c32)-c2nc(-c3cccc(F)c3)ncc2CC4)C1` [Example 204, 2-(3-Aminomethyl-1-methyl-azetidin-3-yl)-8-(3-fluoro-phenyl)-1-methyl-4,5-dihydro-1H-1,7,9-triaza-cyclopenta[a]naphthalene-3-carboxylic acid lactam], the IC50 falls from 34 nM to 22 nM (1.5-fold).

`O=C1NCC2(CNC2)c2[nH]c3c(c21)CCc1cnc(-c2ccc(F)nc2F)cc1-3` [Example 205, 2-(3-Aminomethyl-azetidin-3-yl)-8-(2,6-difluoro-pyridin-3-yl)-4,5-dihydro-1H-pyrrolo[2,3-f]isoquinoline-3-carboxylic acid lactam hydrochloride] and `COc1ccc(-c2ncc3c(n2)-c2[nH]c4c(c2CC3)C(=O)NCC42CNC2)cc1` [Example 206, 2-(3-Aminomethyl-azetidin-3-yl)-8-(4-methoxy-phenyl)-4,5-dihydro-1H-1,7,9-triaza-cyclopenta[a]naphthalene-3-carboxylic acid lactam hydrochloride] cannot be ordered by IC50: < 3 nM for the first, < 3 nM for the second.

Going from `CN1CC2(C1)c1[nH]c3c(c1C(=O)NC21CC1)CCc1cnc(-c2cccc(F)c2)cc1-3` [Example 208, 2-[3-(1-Amino-cyclopropyl)-1-methyl-azetidin-3-yl]-8-(3-fluoro-phenyl)-4,5-dihydro-1H-pyrrolo[2,3-f]isoquinoline-3-carboxylic acid lactam] to `CN1CC2(C1)c1[nH]c3c(c1C(=O)NC21CC1)CCc1cnc(-c2cccc(F)c2)nc1-3` [Example 213, 2-[3-(1-Amino-cyclopropyl)-1-methyl-azetidin-3-yl]-8-(3-fluoro-phenyl)-4,5-dihydro-1H-1,7,9-triaza-cyclopenta[a]naphthalene-3-carboxylic acid lactam], the IC50 rises from < 3 nM to 19 nM.

Going from `Cn1c2c(c3c1C1(CNC1)C1(CC1)NC3=O)CCc1cnc(-c3cccc(F)c3)cc1-2` [Example 209, 2-[3-(1-Amino-cyclopropyl)-azetidin-3-yl]-8-(3-fluoro-phenyl)-1-methyl-4,5-dihydro-1H-pyrrolo[2,3-f]isoquinoline-3-carboxylic acid lactam hydrochloride] to `CN1CC2(C1)c1c(c3c(n1C)-c1cc(-c4cccc(F)c4)ncc1CC3)C(=O)NC21CC1` [Example 210, 2-[3-(1-Amino-cyclopropyl)-1-methyl-azetidin-3-yl]-8-(3-fluoro-phenyl)-1-methyl-4,5-dihydro-1H-pyrrolo[2,3-f]isoquinoline-3-carboxylic acid lactam], the IC50 rises from 3 nM to 45 nM (15-fold). The first is the more potent here.

`O=C1NC2(CC2)C2(CNC2)c2[nH]c3c(c21)CCc1cnc(-c2cccc(F)c2)nc1-3` [Example 212, 2-[3-(1-Amino-cyclopropyl)-azetidin-3-yl]-8-(3-fluoro-phenyl)-4,5-dihydro-1H-1,7,9-triaza-cyclopenta[a]naphthalene-3-carboxylic acid lactam hydrochloride] and `COc1ccc(-c2ncc3c(n2)-c2[nH]c4c(c2CC3)C(=O)NC2(CC2)C42CNC2)cc1` [Example 214, 2-[3-(1-Amino-cyclopropyl)-azetidin-3-yl]-8-(4-methoxy-phenyl)-4,5-dihydro-1H-1,7,9-triaza-cyclopenta[a]naphthalene-3-carboxylic acid lactam hydrochloride] are within 1.5-fold of each other in IC50: 5 nM for the first, 6 nM for the second.

`COc1ccc(-c2ncc3c(n2)-c2[nH]c4c(c2CC3)C(=O)NC2(CC2)C42CN(C)C2)cc1` [Example 215, 2-[3-(1-Amino-cyclopropyl)-1-methyl-azetidin-3-yl]-8-(4-methoxy-phenyl)-4,5-dihydro-1H-1,7,9-triaza-cyclopenta[a]naphthalene-3-carboxylic acid lactam] and `COc1ccc(-c2ncc3c(n2)-c2c(c4c(n2C)C2(CNC4=O)CN(C)C2)CC3)cc1` [Example 219, 2-(3-Aminomethyl-1-methyl-azetidin-3-yl)-8-(4-methoxy-phenyl)-1-methyl-4,5-dihydro-1H-1,7,9-triaza-cyclopenta[a]naphthalene-3-carboxylic acid lactam] are within 1.5-fold of each other in IC50: 18 nM for the first, 20 nM for the second.

Compared with `O=C1NC2(CC2)Cc2[nH]c3c(c21)CCc1cnc(-c2ccc(N4CCNCC4)cc2)cc1-3` [Example 216, 2-(1-Amino-cyclopropylmethyl)-8-(4-piperazin-1-yl-phenyl)-4,5-dihydro-1H-pyrrolo[2,3-f]isoquinoline-3-carboxylic acid lactam hydrochloride], `CN1CCN(c2ccc(-c3cc4c(cn3)CCc3c-4[nH]c4c3C(=O)NC3(CC3)C4)cc2)CC1` [Example 217, 2-(1-Amino-cyclopropylmethyl)-8-(4-methyl-piperazin-1-yl-phenyl)-4,5-dihydro-1H-pyrrolo[2,3-f]isoquinoline-3-carboxylic acid lactam] is 5.2-fold higher in IC50: 18 nM for the first, 93 nM for the second. The first is the more potent here.

Molecule `COc1ccc(-c2ncc3c(n2)-c2c(c4c(n2C)C2(CNC2)CNC4=O)CC3)cc1` [Example 218, 2-(3-Aminomethyl-azetidin-3-yl)-8-(4-methoxy-phenyl)-1-methyl-4,5-dihydro-1H-1,7,9-triaza-cyclopenta[a]naphthalene-3-carboxylic acid lactam hydrochloride] has an IC50 of 30 nM.
